For 1 compound, Activity results are on record in ChEMBL document CHEMBL1926541, “Molecular docking of γ-sitosterol with some targets related to diabetes” (2012).

Common to all, as to format: functional
The test system of experiment [1] is Rattus norvegicus. Put plainly: Antidiabetic activity in STZ-induced diabetic rat model assessed as reduction in glucose-6-phosphatase at 20 mg/kg, po qd for 21 days. Details: scale not given: the % may be the effect or the level left.
Experiment [2] concerns Rattus norvegicus. Kind of experiment: Antidiabetic activity in STZ-induced diabetic rat model assessed as reduction in glycosylated haemoglobin at 20 mg/kg, po qd for 21 days. Details: scale not given: the % may be the effect or the level left.
Experiment [3] has as its system Rattus norvegicus. Kind of experiment: Antidiabetic activity in STZ-induced diabetic rat model assessed as increase in glucose 6 phosphate dehydrogenase at 20 mg/kg, po qd for 21 days.
Experiment [4] concerns Rattus norvegicus. Put plainly: Antidiabetic activity in STZ-induced diabetic rat model assessed as increase in plasma insulin level at 20 mg/kg, po qd for 21 days.
Experiment [5] deals with Rattus norvegicus. Put plainly: Antidiabetic activity in STZ-induced diabetic rat model assessed as increase in liver glycogen at 20 mg/kg, po qd for 21 days.
The test system of experiment [6] is Rattus norvegicus. Put plainly: Antidiabetic activity in STZ-induced diabetic rat model assessed as increase in muscle glycogen at 20 mg/kg, po qd for 21 days.

For `CC[C@H](CC[C@@H](C)[C@H]1CC[C@H]2[C@@H]3CC=C4C[C@@H](O)CC[C@]4(C)[C@H]3CC[C@]12C)C(C)C` [BETA-SITOSTEROL], the Activity in the experiment with Rattus norvegicus [1] worked out at 40.07%; in the experiment with Rattus norvegicus [2] it was 66.96%; in the experiment on Rattus norvegicus [3] it was 38.52%; with Rattus norvegicus [4], 69.05%; in the experiment with Rattus norvegicus [5], 77.15%; in the experiment with Rattus norvegicus [6] it was 76.86%.
